Test results reported in patent publication US20170142962A1, “METHODS AND SOLUTIONS INCLUDING ADDITIVES AND STABILIZERS FOR KILLING OR DEACTIVATING SPORES” (EP Technologies LLC, priority 2015, published 2017).
Structures can show the parent of a compound that is named as a salt.

Assays:
C. diff spores [1] = assay: Example 4: direct DBD plasma treatment of acid solutions, spore inoculum in PBST with soil; assay type: cell-based, Clostridium difficile; settings: 0.0001% to 10% acid solutions, 3 μl, DBD 20 seconds
Description: (§1) In the following examples, various treatments were applied to measure the ability of plasma-activated liquids containing various additives to kill or deactivate spores from C. diff bacteria. Briefly, a volume of 10 μl of C. diff spores in sterile water (containing approximately 10^8 colony forming units (CFUs)/ml) was added onto a sterile stainless steel disc and left to dry for 30 minutes. The contaminated surfaces were then exposed to a treatment described below. After treatment, the killing or deactivation capacity of the treatment was measured by estimating the number of surviving CFUs. Estimation of surviving CFUs was determined by placing the disc in test tubes filled with a neutralizer. The test tubes were sonicated for 1 minute and vortexed for 15 seconds to fully remove spores from the surfaces. The neutralizer solution containing spores was diluted and plated on Brain Heart Infusion Agar supplemented with 0.1% Sodium Taurocholate (BHIT). The agar plates were incubated under anaerobic conditions for 36-48 hours at 37° C. CFUs were estimated based on colony counts on the agar plates following incubation.
A direct plasma treatment (as shown in FIG. 1) with DBD was used for the testing. The direct DBD was created by a microsecond pulsed power supply which creates discrete voltage bursts at a repetition rate of 3.5 kHz which consist of decaying sinusoidal waveforms with a frequency of 32 kHz and a peak-to-peak voltage of approximately 20 kV. The gap distance between the plasma reactor and the disc was 2 mm. Spore inoculum for the stainless steel disc was prepared in 1×PBST with soil instead of sterile water. Citric acid, acetic acid, or HCl was added to water to produce 0.0001% to 10% acid solutions. 3 μl of each of these solutions was added to the spore-containing discs. After application, the discs were subjected to DBD treatment for 20 seconds.

[2] = cited from earlier work
C. diff spores [3] = assay: Example 1: direct DBD plasma treatment of EtOH, H2O2 or water solutions on spore-containing discs with soil; assay type: cell-based, Clostridium difficile; settings: DBD 30 seconds, 35% EtOH, 70% EtOH, 3% H2O2
Description: as §1, with “incubation. A direct plasma treatment (as shown in FIG. 1) with DBD was used for the testing. The direct DBD was created by an AC sinusoidal voltage power supply with a power scale at 15 (approximately 20 kV peak-to-peak) and a driving frequency of 20.5 kHz. […]” for “incubation.”

C. diff spores [4] = assay: Example 3: direct DBD plasma treatment of H2O2 or NaNO2 solutions, spore inoculum in PBST; assay type: cell-based, Clostridium difficile; settings: 1, 10, 100, 500 mM, 10 μl, DBD 20 seconds, two trials, NaNO2: other than at 10 mM
Description: as §1
A direct plasma treatment (as shown in FIG. 1) with DBD was used for the testing. […]

C. diff spores [5] = assay: Example 11: plasma activated wipes used to wipe spore-containing surface; assay type: cell-based, Clostridium difficile; settings: mechanical removal
Description: as §1

C. diff spores [6] = assay: Example 2: direct DBD plasma treatment of differing EtOH concentrations on spore-containing discs with soil; assay type: cell-based, Clostridium difficile; settings: 12 μl, DBD 30 seconds
Description: as §1, with “incubation. A direct plasma treatment (as shown in FIG. 1) with DBD was used for the testing. […] The gap distance between the plasma reactor and the disc was 2 mm.” for “incubation.”

[7] = cited from earlier work; remark: listed apart in the source

In the case of `O=C(O)CC(O)(CC(=O)O)C(=O)O` [citric acid], the “killing or deactivation efficiency relative to water alone” value (C. diff spores [1]) is reported as “increased the killing or deactivation efficiency”.

For `OO` [H2O2, hydrogen peroxide], the “OSHA permissible exposure limit” value ([2]; averaged over an 8-hour work shift) is listed as 1 ppm, the “AIHA ERPG-2 maximum airborne concentration” value ([2]; exposure up to an hour without irreversible or serious health effects) is listed as 50 ppm and the “kill or deactivation efficiency as additive in the water, versus water alone” value (C. diff spores [3]) is listed as “substantially increased the kill or deactivation efficiency”. For the same compound, the “effect of increasing the concentration on killing or deactivation efficiency” value (C. diff spores [4]) was “increased the killing or deactivation efficiency”.

In the case of `Cl` [HCl, hydrochloric acid], the “killing or deactivation efficiency relative to water alone” value (C. diff spores [1]) is reported as “increased the killing or deactivation efficiency”.

In the case of `CCO` [EtOH, ethanol], the “LR of wipe without plasma activation” value (C. diff spores [5]) is reported as ~0.7 LR, the “killing or deactivation efficiency with increased concentration” value (C. diff spores [6]) is reported as “increasing killing or deactivation efficiency” and the “kill or deactivation efficiency as additive in the water, versus water alone” value (C. diff spores [3]) is reported as “substantially increased the kill or deactivation efficiency”.

In the case of `O=NO` [NaNO2, sodium nitrite], the “effect of increasing the concentration on killing or deactivation efficiency” value (C. diff spores [4]) is reported as “did not increase the killing or deactivation efficiency”.

In the case of `O=NOO` [peroxynitrite], the half-life [7] is given as “around 1 second”.

For `CC(=O)O` [acetic acid], the “killing or deactivation efficiency relative to water alone” value (C. diff spores [1]) was “increased the killing or deactivation efficiency”.
